Test results as given in PubChem BioAssay AID342 (DTP/NCI, 2004).
Several values for one entry are separate records, joined by “and”; a condition that tells them apart may be missing. Equal values may be shown once. Square brackets hold non-standard residues; d marks the D form. Peptide text beside a SMILES is read from it. Ac5c = NC1(C(=O)O)CCCC1

Test system: Swiss mice, Sarcoma 180 sc, mean tumor weight T/C
Assay: NCI In Vivo Anticancer Drug Screen. Data for tumor model Sarcoma 180 (subcutaneous) in Swiss mice
Details: endpoint: mean tumor weight, higher = larger tumour
Summary of the method: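 Readout is the ratio of treated-group measurement to vehicle-control measurement (T/C), based on survival or tumor size in mice carrying transplanted tumors.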

[1] = dose: 200.0 mg/kg/injection, schedule: Q01DX007 (ip), vehicle: carboxymethylcellulose (CMC)
[2] = dose: 100.0 mg/kg/injection, schedule: Q01DX007 (ip), vehicle: saline

O=P1(N(CCCl)CCCl)NCCCO1 (stereo not given)
T/C (dose: 12.5 mg/kg/injection, schedule: Q01DX007 (ip), vehicle: carboxymethylcellulose (CMC)): 50 % of control and 55 % of control | T/C (dose: 15.0 mg/kg/injection, schedule: Q01DX007 (ip), vehicle: carboxymethylcellulose (CMC)): 88 % of control | T/C (dose: 23.88 mg/kg/injection, schedule: Q01DX007 (ip), vehicle: carboxymethylcellulose (CMC)): 101 % of control | T/C (dose: 25.0 mg/kg/injection, schedule: Q01DX007 (ip), vehicle: carboxymethylcellulose (CMC)): 70 % of control | T/C (dose: 29.85 mg/kg/injection, schedule: Q01DX007 (ip), vehicle: carboxymethylcellulose (CMC)): 97 % of control | T/C (dose: 30.0 mg/kg/injection, schedule: Q01DX007 (ip), vehicle: carboxymethylcellulose (CMC)): 25 % of control | T/C (dose: 39.8 mg/kg/injection, schedule: Q01DX007 (ip), vehicle: carboxymethylcellulose (CMC)): 72 % of control | T/C (dose: 59.7 mg/kg/injection, schedule: Q01DX007 (ip), vehicle: carboxymethylcellulose (CMC)): 34 % of control | T/C (dose: 60.0 mg/kg/injection, schedule: Q01DX007 (ip), vehicle: carboxymethylcellulose (CMC)): 4 % of control | T/C (dose: 80.0 mg/kg/injection, schedule: Q01DX007 (ip), vehicle: carboxymethylcellulose (CMC)): 4 % of control | T/C (dose: 746.25 mg/kg/injection, schedule: Q#A X014 (ip), vehicle: carboxymethylcellulose (CMC)): 65 % of control | T/C (dose: 1492.5 mg/kg/injection, schedule: Q#A X014 (ip), vehicle: carboxymethylcellulose (CMC)): 45 % of control | T/C (dose: 2985.0 mg/kg/injection, schedule: Q#A X014 (ip), vehicle: carboxymethylcellulose (CMC)): 7 % of control | T/C (dose: 3731.0 mg/kg/injection, schedule: Q#A X014 (ip), vehicle: carboxymethylcellulose (CMC)): 67 % of control

Cc1nc(C(N)=O)nc2ccccc12
T/C (dose: 62.5 mg/kg/injection, schedule: Q#A X014 (ip), vehicle: methylcellulose (MC)): 64 % of control and 81 % of control | T/C [1]: 64 % of control and 65 % of control | T/C (dose: 250.0 mg/kg/injection, schedule: Q#A X014 (ip), vehicle: methylcellulose (MC)): 36 % of control

CC(C)CC(C#N)C(N)=O (stereo not given)
T/C (dose: 7.5 mg/kg/injection, schedule: Q01DX007 (ip), vehicle: methylcellulose (MC)): 108 % of control | T/C (dose: 30.0 mg/kg/injection, schedule: Q01DX007 (ip), vehicle: methylcellulose (MC)): 96 % of control

CN(/N=N/N(C)c1ccccc1)c1ccccc1
T/C (dose: 7.8 mg/kg/injection, schedule: Q01DX007 (ip), vehicle: carboxymethylcellulose (CMC)): 72 % of control | T/C (dose: 15.6 mg/kg/injection, schedule: Q01DX007 (ip), vehicle: carboxymethylcellulose (CMC)): 62 % of control | T/C (dose: 31.3 mg/kg/injection, schedule: Q01DX007 (ip), vehicle: carboxymethylcellulose (CMC)): 75 % of control | T/C (dose: 62.5 mg/kg/injection, schedule: Q01DX007 (ip), vehicle: carboxymethylcellulose (CMC)): 49 % of control and 74 % of control | T/C (dose: 125.0 mg/kg/injection, schedule: Q01DX007 (ip), vehicle: carboxymethylcellulose (CMC)): 37 % of control

CN(C)c1ccc2c(c1)Cc1cc(N=C3C=CC(=O)O3)ccc1-2
T/C (dose: 48.0 mg/kg/injection, schedule: Q01DX007 (ip), vehicle: other): 83 % of control | T/C (dose: 73.0 mg/kg/injection, schedule: Q01DX007 (ip), vehicle: other): 101 % of control | T/C (dose: 166.0 mg/kg/injection, schedule: Q01DX007 (ip), vehicle: other): 40 % of control and 65 % of control

CC[C@]1(O)C[C@H]2CN(CCc3c([nH]c4ccccc34)[C@@](C(=O)OC)(c3cc4c(cc3OC)N(C=O)[C@H]3[C@@](O)(C(=O)OC)[C@H](OC(C)=O)[C@]5(CC)C=CCN6CC[C@]43[C@@H]65)C2)C1
T/C (dose: 0.12 mg/kg/injection, schedule: Q01DX007 (ip), vehicle: saline): 57 % of control

CN(C)[C@@H]1C(=O)C(C(=O)NCNC(CO)(CO)CO)=C(O)[C@@]2(O)C(=O)C3=C(O)c4c(O)cccc4[C@@](C)(O)[C@H]3C[C@@H]12
T/C (dose: 55.0 mg/kg/injection, schedule: Q#A X014 (ip), vehicle: saline): 65 % of control | T/C (dose: 83.0 mg/kg/injection, schedule: Q#A X014 (ip), vehicle: saline): 93 % of control | T/C (dose: 100.0 mg/kg/injection, schedule: Q01DX007 (ip), vehicle: methylcellulose (MC)): 83 % of control | T/C [2]: 119 % of control | T/C (dose: 125.0 mg/kg/injection, schedule: Q#A X014 (ip), vehicle: saline): 52 % of control | T/C (dose: 140.0 mg/kg/injection, schedule: Q01DX007 (ip), vehicle: methylcellulose (MC)): 62 % of control | T/C (dose: 140.0 mg/kg/injection, schedule: Q01DX007 (ip), vehicle: saline): 83 % of control | T/C (dose: 210.0 mg/kg/injection, schedule: Q01DX007 (ip), vehicle: methylcellulose (MC)): 38 % of control | T/C (dose: 210.0 mg/kg/injection, schedule: Q01DX007 (ip), vehicle: other): 86 % of control | T/C (dose: 210.0 mg/kg/injection, schedule: Q01DX007 (ip), vehicle: saline): 65 % of control | T/C (dose: 320.0 mg/kg/injection, schedule: Q01DX007 (ip), vehicle: methylcellulose (MC)): 33 % of control

OCC1OC(n2cnc3c(Cl)ncnc32)C(O)C1O (stereo not given)
T/C (dose: 5.9 mg/kg/injection, schedule: Q01DX007 (ip), vehicle: carboxymethylcellulose (CMC)): 102 % of control | T/C (dose: 11.75 mg/kg/injection, schedule: Q01DX007 (ip), vehicle: carboxymethylcellulose (CMC)): 104 % of control | T/C (dose: 23.5 mg/kg/injection, schedule: Q01DX007 (ip), vehicle: carboxymethylcellulose (CMC)): 105 % of control | T/C (dose: 47.0 mg/kg/injection, schedule: Q01DX007 (ip), vehicle: carboxymethylcellulose (CMC)): 113 % of control | T/C (dose: 50.0 mg/kg/injection, schedule: Q01DX007 (ip), vehicle: carboxymethylcellulose (CMC)): 75 % of control | T/C (dose: 94.0 mg/kg/injection, schedule: Q01DX007 (ip), vehicle: carboxymethylcellulose (CMC)): 38 % of control | T/C (dose: 100.0 mg/kg/injection, schedule: Q01DX007 (ip), vehicle: carboxymethylcellulose (CMC)): 110 % of control | T/C (dose: 187.5 mg/kg/injection, schedule: Q01DX007 (ip), vehicle: carboxymethylcellulose (CMC)): 29 % of control | T/C [1]: 102 % of control | T/C (dose: 375.0 mg/kg/injection, schedule: Q01DX007 (ip), vehicle: carboxymethylcellulose (CMC)): 36 % of control | T/C (dose: 400.0 mg/kg/injection, schedule: Q01DX007 (ip), vehicle: carboxymethylcellulose (CMC)): 70 % of control | T/C (dose: 750.0 mg/kg/injection, schedule: Q01DX007 (ip), vehicle: carboxymethylcellulose (CMC)): 36 % of control | T/C (dose: 800.0 mg/kg/injection, schedule: Q01DX007 (ip), vehicle: carboxymethylcellulose (CMC)): 122 % of control

NCC(=O)NC1(C(=O)O)CCCC1 (H-Gly-[Ac5c]-OH)
T/C (dose: 66.0 mg/kg/injection, schedule: Q01DX007 (ip), vehicle: saline): 57 % of control | T/C [2]: 103 % of control | T/C (dose: 150.0 mg/kg/injection, schedule: Q01DX007 (ip), vehicle: saline): 45 % of control | T/C (dose: 225.0 mg/kg/injection, schedule: Q01DX007 (ip), vehicle: saline): 47 % of control

CC[C@H](c1ccc(O)cc1)[C@@H](CC)c1ccc(O)cc1
T/C (dose: 3.8 mg/kg/injection, schedule: Q01DX007 (sc), vehicle: steriod suspending solution): 186 % of control | T/C (dose: 7.5 mg/kg/injection, schedule: Q01DX007 (sc), vehicle: steriod suspending solution): 67 % of control | T/C (dose: 15.0 mg/kg/injection, schedule: Q01DX007 (sc), vehicle: steriod suspending solution): 37 % of control and 43 % of control | T/C (dose: 62.0 mg/kg/injection, schedule: Q01DX007 (sc), vehicle: steriod suspending solution): 49 % of control and 67 % of control | T/C (dose: 125.0 mg/kg/injection, schedule: Q01DX007 (sc), vehicle: steriod suspending solution): 40 % of control and 43 % of control | T/C (dose: 250.0 mg/kg/injection, schedule: Q01DX007 (sc), vehicle: steriod suspending solution): 54 % of control

NC(Cc1cccs1)C(=O)O (stereo not given)
T/C (dose: 175.0 mg/kg/injection, schedule: Q01DX007 (ip), vehicle: carboxymethylcellulose (CMC)): 95 % of control | T/C (dose: 250.0 mg/kg/injection, schedule: Q01DX007 (ip), vehicle: carboxymethylcellulose (CMC)): 81 % of control | T/C (dose: 1000.0 mg/kg/injection, schedule: Q01DX007 (ip), vehicle: carboxymethylcellulose (CMC)): 108 % of control
